Results: US20260000652A1, “IMPEDING PLATINUM-BASED CHEMOTHERAPEUTIC INDUCED OTOTOXICITY USING A COLONY STIMULATING FACTOR 1 RECEPTOR INHIBITOR” (THE UNITED STATES OF AMERICA, AS REPRESENTED BY THE …, priority 2022, published 2026)
Entries after “also recorded” stand apart in the source; their conditions may differ.

Assays:
cochlear macrophages = assay: Cochlear macrophage ablation, DAPI and CX3CR1-GFP staining of cochlear sections; format: in vivo, mouse; settings: for ablation of cochlear macrophages: DAPI and CX3CR1-GFP staining of cochlea, saline- and cisplatin-treated mice, vs no pexidartinib
Text: The CSF1R inhibitor can inhibit, directly and/or indirectly, macrophages, or microglia, or both. Inhibition and/or killing of macrophages and/or microglia can be referred to as “ablation.” The macrophages can comprise cochlear resident macrophages, or recruited macrophages, or both. Fractalkine receptor CX3CR1 is a regulator of macrophage function and can be utilized to label macrophages. The resident macrophages can comprise perivascular resident macrophage-like melanocytes (PVM/Ms). PVM/Ms can regulate the integrity of the blood labyrinth barrier (BLB), a barrier between the vasculature and the inner ear fluids (endolymph or perilymph). The BLB can control exchanges between the blood and fluids from intrastitial space in cochlea. The BLB can maintain the inner ear fluid ionic homeostasis. The BLB can restrict entry of most blood-borne (toxic) substances into inner ear tissues. The BLB can selectively pass ions, fluids, and nutrients into cochlea. The CSF1R inhibitor can affect, directly and/or indirectly, the blood labyrinth barrier (BLB) and one or more of its functions.
(§1) A clinically relevant mouse model of cisplatin-induced ototoxicity was developed and used to examine whether macrophages play a role in hearing loss in response to cisplatin. Pexidartinib is an inhibitor of the colony stimulating factor 1 receptor (CSF1R), which aids in the survival of microglia and cochlear resident macrophages.

[1] = Cisplatin-induced weight loss in mouse model of cisplatin ototoxicity; format: in vivo; settings: cisplatin-treated mice with macrophage ablation
Text: as §1

[2] = system: cisplatin-induced hearing loss; assay: Hearing sensitivity by auditory brainstem responses (ABR) in cisplatin-treated mice; format: in vivo, mouse; settings: cisplatin plus pexidartinib vs cisplatin only, after end of third cycle
outer hair cell function = assay: Distortion product otoacoustic emissions (DPOAE) in cisplatin-treated mice; format: in vivo, mouse; settings: cisplatin plus pexidartinib vs cisplatin only; 16, 22, 32, 40 kHz
outer hair cells = assay: Outer hair cell survival, Myosin 7a staining and quantification of cochlear hair cells; format: in vivo, mouse; settings: cisplatin mice co-treated with PLX3397, Myosin 7a staining, 16, 22.4, 32, 40 kHz regions
Description: Hearing sensitivity was assessed prior to pexidartinib/cisplatin administration and after the end of the third cycle of the treatment protocol using auditory brainstem responses (ABR) and distortion product otoacoustic emissions (DPOAE). […] Histology can be performed using MyosinVIla (turquoise).
The data are supportive of macrophage ablation being protective against cisplatin-induced hearing loss. […] Data and other information relevant to the experimental examples are depicted in the various figures of the drawings and summarized herein.

[3] = Mass spectrometry measurement of platinum content in microdissected inner ear tissues; format: in vivo, mouse; settings: spiral ganglion neurons, organ of Corti, stria vascularis, utricle, saccule

Row | Compound | number of macrophages in the cochlea (cochlear macrophages; cisplatin vs control, whole cochlear section) | ablation of cochlear macrophages (cochlear macrophages) | ablation of cochlear macrophages (cochlear macrophages; listed as PL3397) | cisplatin-induced weight loss [1] | cisplatin-induced hearing loss (ABR threshold shifts) [2] | cisplatin-induced hearing loss (ABR threshold shifts) ([2]; listed as PLX3397) | OHC function (DPOAE amplitudes) (outer hair cell function) | OHC survival (outer hair cells) | OHC survival (outer hair cells; listed as PLX3397) | cisplatin entry into the inner ear (platinum content) [3]
1 | N.N.[Cl][Pt][Cl] [cisplatin] | reduced number of macrophages in the cochlea | – | – | – | – | – | – | – | – | –
2 | FC(F)(F)c1ccc(CNc2ccc(Cc3c[nH]c4ncc(Cl)cc34)cn2)cn1 [pexidartinib] | – | ablate macrophages; also recorded: effectively ablates cochlear macrophages; also recorded: ablation of macrophages | effectively ablates cochlear macrophages | significantly reduced cisplatin-induced weight loss | significantly reduced hearing loss | significantly reducing cisplatin-induced hearing loss | protected from the loss of OHC function; also recorded: higher DPOAE amplitudes | increased OHC survival; also recorded: protection of outer hair cells against cisplatin-induced hair cell loss | greater OHC survival | reduces cisplatin entry into the inner ear; also recorded: reduced cisplatin entry to the inner ear
